From paper PMC4165445 (Biochemistry, 2014)
Blank lines part the entries; values can stand above or below the substance they belong to.

What was measured:
[1] = molecular target: JNK1 (Homo sapiens, UniProt P45983); test: Recombinant kinase assay, kinetic parameters of sensor phosphorylation; assay type: biochemical
[2] = molecular target: JNK2 (Homo sapiens, UniProt P45984); test: as above; assay type: biochemical
[3] = molecular target: JNK3 (Homo sapiens, UniProt P53779); test: as above; assay type: biochemical
[4] = test system: off target kinases; test: Kinase panel selectivity screen, JNK sensor, off target kinases; assay type: biochemical; conditions: 15 nM kinase, sensor at 2 × KM (3 μM), other MAP and non-MAP kinases
[5] = molecular target: T1, p38α (Homo sapiens, UniProt Q16539); test: Recombinant kinase assay, kinetic parameters of sensor phosphorylation; assay type: biochemical
[6] = molecular target: T2, p38β (Homo sapiens, UniProt Q15759); test: as above; assay type: biochemical
[7] = molecular target: JNK; conditions: read-out: KD (μM) JNK; docking motif peptide binding to JNK; cited from earlier work
[8] = molecular target: ERK1 (Homo sapiens, UniProt P27361); test: Recombinant kinase assay, kinetic parameters of sensor phosphorylation; assay type: biochemical
[9] = molecular target: ERK2 (Homo sapiens, UniProt P28482); test: as above; assay type: biochemical
[10] = molecular target: T1, p38α; test: Kinase panel selectivity screen, ERK sensor crosstalk with p38α; assay type: biochemical; conditions: 15 nM kinase, sensor at 2 × KM (2.5 μM)
[11] = molecular target: T2, p38β; test: Kinase panel selectivity screen, ERK sensor crosstalk with p38β; assay type: biochemical; conditions: 15 nM kinase, sensor at 2 × KM (2.5 μM)
[12] = molecular target: p38; conditions: read-out: KD (μM) p38; docking motif peptide binding to p38; cited from earlier work
[13] = molecular target: ERK; conditions: read-out: KD (μM) ERK; docking motif peptide binding to ERK; cited from earlier work
[14] = recombinant JNK1, 1 mM ATP, pH 7.4, 30 °C, Sox fluorescence
[15] = recombinant JNK2, 1 mM ATP, pH 7.4, 30 °C, Sox fluorescence
[16] = recombinant JNK3, 1 mM ATP, pH 7.4, 30 °C, Sox fluorescence
[17] = 1 mM ATP, pH 7.4, 30 °C, Sox fluorescence
[18] = recombinant ERK1, 1 mM ATP, pH 7.4, 30 °C, Sox fluorescence
[19] = recombinant ERK2, 1 mM ATP, pH 7.4, 30 °C, Sox fluorescence

T1 sequence (Q16539 whole entry): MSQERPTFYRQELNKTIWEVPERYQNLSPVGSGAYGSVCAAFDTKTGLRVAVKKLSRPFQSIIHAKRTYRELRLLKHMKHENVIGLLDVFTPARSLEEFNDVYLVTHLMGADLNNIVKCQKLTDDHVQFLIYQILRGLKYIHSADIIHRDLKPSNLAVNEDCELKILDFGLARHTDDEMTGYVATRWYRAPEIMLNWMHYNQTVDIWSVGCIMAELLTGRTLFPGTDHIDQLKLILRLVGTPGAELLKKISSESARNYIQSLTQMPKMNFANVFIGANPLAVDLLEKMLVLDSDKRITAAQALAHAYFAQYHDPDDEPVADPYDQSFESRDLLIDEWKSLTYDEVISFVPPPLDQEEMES
Chain of ERK1 (P27361 whole entry): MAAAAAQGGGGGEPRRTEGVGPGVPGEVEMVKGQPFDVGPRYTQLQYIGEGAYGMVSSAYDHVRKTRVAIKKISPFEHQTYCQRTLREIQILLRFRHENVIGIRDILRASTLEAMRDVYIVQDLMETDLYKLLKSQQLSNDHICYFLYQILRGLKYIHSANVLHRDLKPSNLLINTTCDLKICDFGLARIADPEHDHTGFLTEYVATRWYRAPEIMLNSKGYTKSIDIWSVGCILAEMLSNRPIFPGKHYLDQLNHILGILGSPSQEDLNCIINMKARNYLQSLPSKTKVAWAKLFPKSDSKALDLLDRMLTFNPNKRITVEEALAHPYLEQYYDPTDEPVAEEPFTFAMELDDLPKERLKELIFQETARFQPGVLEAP
Chain of JNK3 (P53779 whole entry): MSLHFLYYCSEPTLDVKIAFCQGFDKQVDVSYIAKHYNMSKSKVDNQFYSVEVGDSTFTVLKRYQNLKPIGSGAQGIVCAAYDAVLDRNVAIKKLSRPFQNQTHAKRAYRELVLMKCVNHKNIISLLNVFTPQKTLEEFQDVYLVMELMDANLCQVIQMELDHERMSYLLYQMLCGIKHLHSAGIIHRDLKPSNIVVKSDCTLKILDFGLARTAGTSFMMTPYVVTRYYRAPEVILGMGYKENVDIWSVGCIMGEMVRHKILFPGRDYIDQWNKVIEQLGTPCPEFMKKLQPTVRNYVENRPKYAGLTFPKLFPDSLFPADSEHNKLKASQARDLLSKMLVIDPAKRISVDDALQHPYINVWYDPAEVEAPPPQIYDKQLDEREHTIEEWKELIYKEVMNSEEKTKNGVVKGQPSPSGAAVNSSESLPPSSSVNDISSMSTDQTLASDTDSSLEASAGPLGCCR
Chain of ERK2 (P28482 whole entry): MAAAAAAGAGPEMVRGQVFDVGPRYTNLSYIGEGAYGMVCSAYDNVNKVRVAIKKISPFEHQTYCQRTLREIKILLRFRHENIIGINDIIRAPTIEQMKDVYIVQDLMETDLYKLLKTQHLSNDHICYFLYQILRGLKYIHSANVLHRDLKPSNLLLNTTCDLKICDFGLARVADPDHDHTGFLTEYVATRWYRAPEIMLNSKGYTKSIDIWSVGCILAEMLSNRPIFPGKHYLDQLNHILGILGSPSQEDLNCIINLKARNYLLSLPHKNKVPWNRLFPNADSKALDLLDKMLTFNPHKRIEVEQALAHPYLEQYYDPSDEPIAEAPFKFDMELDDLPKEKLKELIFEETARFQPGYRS
Chain of JNK1 (P45983 whole entry): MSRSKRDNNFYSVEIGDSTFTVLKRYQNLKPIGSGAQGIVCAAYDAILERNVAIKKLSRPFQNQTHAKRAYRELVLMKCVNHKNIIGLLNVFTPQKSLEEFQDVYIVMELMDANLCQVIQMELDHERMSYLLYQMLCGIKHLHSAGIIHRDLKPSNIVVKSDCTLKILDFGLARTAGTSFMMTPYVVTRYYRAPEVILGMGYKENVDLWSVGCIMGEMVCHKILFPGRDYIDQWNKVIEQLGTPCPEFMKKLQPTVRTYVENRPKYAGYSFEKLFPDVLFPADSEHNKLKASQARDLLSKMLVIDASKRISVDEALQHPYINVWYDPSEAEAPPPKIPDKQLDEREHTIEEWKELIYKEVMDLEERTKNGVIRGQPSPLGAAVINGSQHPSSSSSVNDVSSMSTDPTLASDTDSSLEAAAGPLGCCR
T2 sequence (Q15759 whole entry): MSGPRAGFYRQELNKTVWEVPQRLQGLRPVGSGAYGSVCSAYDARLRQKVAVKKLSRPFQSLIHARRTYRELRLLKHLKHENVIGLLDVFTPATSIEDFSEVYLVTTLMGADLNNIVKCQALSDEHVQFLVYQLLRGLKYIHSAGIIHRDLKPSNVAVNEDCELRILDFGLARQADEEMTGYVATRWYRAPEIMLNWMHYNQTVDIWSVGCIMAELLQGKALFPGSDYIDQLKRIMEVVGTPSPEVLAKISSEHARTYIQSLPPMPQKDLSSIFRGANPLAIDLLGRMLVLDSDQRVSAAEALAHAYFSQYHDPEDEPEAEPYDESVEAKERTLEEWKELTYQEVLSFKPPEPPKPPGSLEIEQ

Substance: PQLKPIESSILAQRRVRKL [RSK1]
Kd [7]: > 100 µM

Substance: GLKRVRRQALISSEIPKLQP-PEG2-Triazole-PEG2-VP-Csox-LTPGGRR [ERK1/2]
catalytic efficiency (min^–1 μM^–1) ([8]; recombinant ERK1): 26.2 min^–1 μM^–1 | Vmax (μmol min^–1 mg^–1) [8, 18]: 0.42 ± 0.03 μmol min^–1 mg^–1 | kcat (min^–1) [8, 18]: 29.9 ± 2.0 min^–1 | catalytic efficiency (min^–1 μM^–1) ([9]; recombinant ERK2): 54.6 min^–1 μM^–1 | Vmax (μmol min^–1 mg^–1) [9, 19]: 0.90 ± 0.01 μmol min^–1 mg^–1 | kcat (min^–1) [9, 19]: 62.8 ± 0.7 min^–1 | crosstalk with p38α (percentage of the target kinase) [10]: 10% | crosstalk with p38β (percentage of the target kinase) [11]: 17%

Substance: IKIKKIEDASNPLLLKRRKK [MK2]
Kd [7]: > 100 µM | Kd [12]: 0.05 µM | Kd [13]: 19.5 µM

Substance: ERPSRDHLYLPLEP [NFAT4]
Kd [7]: 7.1 µM | Kd [12]: > 100 µM | Kd [13]: > 100 µM

Other lines, results leading:

catalytic efficiency (min^–1 μM^–1) ([1]; recombinant JNK1): 5.4 min^–1 μM^–1 | Vmax (μmol min^–1 mg^–1) [1, 14]: 0.38 ± 0.05 μmol min^–1 mg^–1 | kcat (min^–1) [1, 14]: 17.9 ± 2.2 min^–1 | catalytic efficiency (min^–1 μM^–1) ([2]; recombinant JNK2): 19.2 min^–1 μM^–1 | Vmax (μmol min^–1 mg^–1) [2, 15]: 0.37 ± 0.02 μmol min^–1 mg^–1 | kcat (min^–1) [2, 15]: 18.2 ± 1.3 min^–1 | catalytic efficiency (min^–1 μM^–1) ([3]; recombinant JNK3): 9.4 min^–1 μM^–1 | Vmax (μmol min^–1 mg^–1) [3, 16]: 0.35 ± 0.07 μmol min^–1 mg^–1 | kcat (min^–1) [3, 16]: 26.6 ± 5.6 min^–1 | activity observed for any of the off target kinases (percentage of the target kinase) [4]: ≤ 12.5%
Substance: ERPSRDHLYLPLEP-PEG2-SANLLSP-Csox-PA [JNK1/2/3]

catalytic efficiency (min^–1 μM^–1) [5]: 298.7 min^–1 μM^–1 | Vmax (μmol min^–1 mg^–1) [5, 17]: 1.37 ± 0.08 μmol min^–1 mg^–1 | kcat (min^–1) [5, 17]: 92.6 ± 5.4 min^–1 | catalytic efficiency (min^–1 μM^–1) [6]: 282.9 min^–1 μM^–1 | Vmax (μmol min^–1 mg^–1) [6, 17]: 0.84 ± 0.13 μmol min^–1 mg^–1 | kcat (min^–1) [6, 17]: 39.6 ± 6.3 min^–1
Substance: GKKRRKLLLPNSADEIKKIKI-PEG2-Triazole-PEG2-QP-Csox-ASPVV [p38α/β]
